This data set in a line: Aqueous solubility of the compound in Britton-Robinson buffer after 48 hrs at pH 6.5 by UV-vis spectrophotometry based shake flask method. In kind it is physicochemical.

One compound from ChEMBL document CHEMBL4130596, “Adding a Hydrogen Bond May Not Help: Naphthyridinone vs Quinoline Inhibitors of Macrophage Migration Inhibitory Factor” (ACS Med Chem Lett, 2017) can be followed below.

Values after ≈ are worked out from the molar mass of the structure shown.

As for `O=C(O)Cn1ccc2ccc(-c3cn(-c4ccc(O)c(F)c4)nn3)nc2c1=O`, the thermodynamic solubility (usually solubility found after equilibrating the solid with the medium) at 48 h amounted to 288 µg/mL (≈ 755 µM).
